Where two headings read alike, the source gives them in different places.
Test system: NCI-60 standardized human tumor cell line panel
Test: cells
Format: cell-based
Conditions: for NCI-60 screening: Log(GI50): log10 of GI50 in M; for NCI-60 screening: Log(RedIndex): log10 reductive index vs P-CC60

## COc1cc2cc(C(=O)N3CC(CCl)c4c3cc(OC(=O)N3CCN(C)C5CSSCC53)c3ccccc43)[nH]c2c(OC)c1OC (mixture of isomers) [Me-SS66C-CBI-TMI]
786-0 (RE) cell line
  NCI-60 screening: Log(GI50): -6.71
  NCI-60 screening: Log(RedIndex): 0.94
786-0 (RE) cell line, read-out: NCI-60 screening: Raw GI50
  GI50: 0.2 µM
786-0, read-out: GI50
  GI50: 0.2 µM
A498 (RE) cell line
  NCI-60 screening: Log(GI50): -5.91
  NCI-60 screening: Log(RedIndex): 0.35
A498, read-out: GI50
  GI50: 1.2 µM
A549/ATCC, read-out: GI50
  GI50: 0.18 µM
ACHN (RE) cell line
  NCI-60 screening: Log(GI50): -7.55
  NCI-60 screening: Log(RedIndex): 1.24
ACHN (RE) cell line, read-out: NCI-60 screening: Raw GI50
  GI50: 0.028 µM
ACHN, read-out: GI50
  GI50: 0.028 µM
BT-549, read-out: GI50
  GI50: 0.17 µM
CAKI-1 (RE) cell line
  NCI-60 screening: Log(GI50): -6.61
  NCI-60 screening: Log(RedIndex): 0.78
CAKI-1 (RE) cell line, read-out: NCI-60 screening: Raw GI50
  GI50: 0.25 µM
CAKI-1, read-out: GI50
  GI50: 0.25 µM
CCRF-CEM, read-out: GI50
  GI50: 0.11 µM
COLO 205, read-out: GI50
  GI50: 0.33 µM
DU-145 (PR) cell line
  NCI-60 screening: Log(GI50): -7.2
  NCI-60 screening: Log(RedIndex): 0.86
DU-145, read-out: GI50
  GI50: 0.063 µM
EKVX, read-out: GI50
  GI50: 0.23 µM
HCC-2998, read-out: GI50
  GI50: 0.14 µM
HCT-15, read-out: GI50
  GI50: 0.25 µM
HCT-116, read-out: GI50
  GI50: 0.19 µM
HL-60(TB), read-out: GI50
  GI50: 0.052 µM
HOP-62, read-out: GI50
  GI50: 0.2 µM
HOP-92, read-out: GI50
  GI50: 0.24 µM
HT29, read-out: GI50
  GI50: 0.23 µM
IGROV1 (OV) cell line
  NCI-60 screening: Log(GI50): -5.82
  NCI-60 screening: Log(RedIndex): 0.18
IGROV1, read-out: GI50
  GI50: 1.5 µM
K-562, read-out: GI50
  GI50: 0.4 µM
KM12, read-out: GI50
  GI50: 1.1 µM
LOX IMVI, read-out: GI50
  GI50: 0.17 µM
M14, read-out: GI50
  GI50: 0.25 µM
MALME-3M, read-out: GI50
  GI50: 0.21 µM
MCF7, read-out: GI50
  GI50: 0.028 µM
MDA-MB-435, read-out: GI50
  GI50: 0.84 µM
MDA-MB-468, read-out: GI50
  GI50: 0.16 µM
MOLT-4, read-out: GI50
  GI50: 0.07 µM
NCI-H23, read-out: GI50
  GI50: 0.045 µM
NCI-H226, read-out: GI50
  GI50: 1 µM
NCI-H460 (LC) cell line
  NCI-60 screening: Log(GI50): -7.39
  NCI-60 screening: Log(RedIndex): 1.1
NCI-H460, read-out: GI50
  GI50: 0.041 µM
NCI-H522 (LC) cell line
  NCI-60 screening: Log(GI50): -6.84
  NCI-60 screening: Log(RedIndex): 1.07
NCI-H522 (LC) cell line, read-out: NCI-60 screening: Raw GI50
  GI50: 0.15 µM
NCI-H522, read-out: GI50
  GI50: 0.15 µM
OVCAR-3 (OV) cell line
  NCI-60 screening: Log(GI50): -6.31
  NCI-60 screening: Log(RedIndex): 0.63
OVCAR-3, read-out: GI50
  GI50: 0.49 µM
OVCAR-4 (OV) cell line
  NCI-60 screening: Log(GI50): -5.79
  NCI-60 screening: Log(RedIndex): 0.16
OVCAR-4, read-out: GI50
  GI50: 1.6 µM
OVCAR-5 (OV) cell line
  NCI-60 screening: Log(GI50): -6.55
  NCI-60 screening: Log(RedIndex): 1.26
OVCAR-5, read-out: GI50
  GI50: 0.28 µM
OVCAR-8 (OV) cell line
  NCI-60 screening: Log(GI50): -6.82
  NCI-60 screening: Log(RedIndex): 1.04
OVCAR-8 (OV) cell line, read-out: NCI-60 screening: Raw GI50
  GI50: 0.15 µM
OVCAR-8, read-out: GI50
  GI50: 0.15 µM
PC-3 (PR) cell line
  NCI-60 screening: Log(GI50): -6.45
  NCI-60 screening: Log(RedIndex): 0.94
PC-3, read-out: GI50
  GI50: 0.36 µM
RPMI-8226, read-out: GI50
  GI50: 0.16 µM
RXF 393 (RE) cell line
  NCI-60 screening: Log(GI50): -6.88
  NCI-60 screening: Log(RedIndex): 0.9
RXF 393 (RE) cell line, read-out: NCI-60 screening: Raw GI50
  GI50: 0.13 µM
RXF 393, read-out: GI50
  GI50: 0.13 µM
SF-268, read-out: GI50
  GI50: 0.17 µM
SF-295, read-out: GI50
  GI50: 0.13 µM
SF-539, read-out: GI50
  GI50: 0.17 µM
SK-MEL-5, read-out: GI50
  GI50: 0.17 µM
SK-MEL-28, read-out: GI50
  GI50: 0.26 µM
SK-OV-3 (OV) cell line
  NCI-60 screening: Log(GI50): -7.47
  NCI-60 screening: Log(RedIndex): 1.8
SK-OV-3, read-out: GI50
  GI50: 0.034 µM
SN12C (RE) cell line
  NCI-60 screening: Log(GI50): -6.69
  NCI-60 screening: Log(RedIndex): 0.77
SN12C (RE) cell line, read-out: NCI-60 screening: Raw GI50
  GI50: 0.2 µM
SN12C, read-out: GI50
  GI50: 0.2 µM
SNB-19, read-out: GI50
  GI50: 0.22 µM
SR, read-out: GI50
  GI50: 0.037 µM
SW-620, read-out: GI50
  GI50: 0.26 µM
T-47D, read-out: GI50
  GI50: 0.29 µM
TK-10 (RE) cell line
  NCI-60 screening: Log(GI50): -5.89
  NCI-60 screening: Log(RedIndex): 0.34
TK-10, read-out: GI50
  GI50: 1.3 µM
U251, read-out: GI50
  GI50: 0.14 µM

From publication PMC10141580, “Cyclic Dichalcogenides Extend the Reach of Bioreductive Prodrugs to Harness Thiol/Disulfide Oxidoreductases: Applications to seco-Duocarmycins Targeting the Thioredoxin System” (ACS Central Science, 2023)
